We go through 5 compounds from patent US11952554B2, “Alkyl polyglycoside-containing cleaning formulations for chemically sensitive individuals” (Living Clean NZ, Ltd., priority 2021, dated 2024).

Series [1] has as its system chemically sensitive individuals (MCS). Also on record: species or system human. Conditions: in vivo. Here is the method: Once candidate ingredients are identified and tested as described above, they are evaluated for use in potential cleaning formulations using a blind study protocol. The blind studies used in the course of the instant work were comprised of a specially selected panel of volunteers. […] A panel comprised of just such individuals was used for many aspects of the studies conducted herein. […] See E. A. Krusemark and W. Li, “Enhanced olfactory sensory perception of threat in anxiety: An event-related fMRI study,” Chemosensory Perception, 5 (2012) 37-45; the article in its entirely is herein incorporated by reference.
In the course of the instant work, at least one individual with MCS was used to rank prospective ingredients for acceptability in cleaning formulations based upon sensory responses, which included olfactory as well as skin contact. Instrumental analyses were then implemented to correlate results with sensory ratings from the human panel, and to identify and/or quantify the chemicals detected and deemed to be potentially harmful to humans. Ingredients that were deemed acceptable by the human panel and the instrumental analyses were then used as raw materials for cleaning products described herein. It is believed that this level of pre-screening and testing represents a first in the world for consumer cleaning product formulations work, and has provided an unprecedented level of safety testing for consumer products. Accordingly, in one aspect of the technology newly presented and described herein, a method for providing cleaning formulations for use by the general public and chemically-sensitized individuals, in particular, involves:
Without being bound by theory, it is believed that this phenomenon is due to the non-exact nature of the BCI or RCI measurement (±3% by weight) vis-à-vis the low amounts of contaminants, perhaps much less than 1% by weight, that are present in certain ingredients. To test this hypothesis, a number of chemically sensitive individuals assessed four types of alkyl polyglucosides, or APGs, from three manufacturers, all of which have an apparent BCI/RCI of 100%. Each of the APG candidates was rated on a 3-point index: Acceptable, Marginal, and Unacceptable. The Marginal and Unacceptable candidates were then analyzed for the presence of trace contaminants.
In the manufacture of surfactants, it can be assumed that a small amount, albeit a significant one, of feedstock remains unreacted. This amount can often be less than 1% by weight, but to individuals who are sensitive to such species, the impact can be significant. […] As such, a number of raw materials were evaluated by a number of chemically sensitive individuals for acceptability using the same scale as above.

For series [2] the following is noted: cited from earlier work.

Regarding Sodium coco sulfate, the “Acceptability Rating” value in series [1] was “Acceptable”.
Still for that read-out and setting: with C8-10 alkyl polyglucoside the entry was “Unacceptable”.
On the same count and under the same terms, with C10-16 alkyl polyglucoside the entry was “Acceptable-”; with `CCCCCCCCOS(=O)(=O)[O-].[Na+]` [Sodium octyl sulfate (from bio-basis), Sodium octyl sulfate], “Unacceptable”.
Regarding `ClC(Cl)Cl` [Trichloromethane (chloroform), Trichloromethane], in series [2] (Clean Air Act-Hazardous Air Pollutant), the CAA-HAP listing result is “✓”. Besides, the CAA-TFS listing result in series [2] (Clean Air Act-Toxic and Flammable Substances for Accidental Release Prevention) is “✓”. The CWA listing result in series [2] (Clean Water Act-Priority Pollutant) is “✓”. In addition, the CERCLA listing result in series [2] (Comprehensive Environmental Response, Compensation, and Liability Act-Hazardous Substance) is on record as “✓”. In addition, the EPCRA listing entry in series [2] (Emergency Planning & Community Right to Know Act-Toxic Release Inventory Chemical) was “✓”. In series [2] (Occupational Safety and Health Act-Air Contaminants), the OSHA listing entry is “✓”. The RCRA listing entry in series [2] (Resource Conservation and Recovery Act-Hazardous Constituents) is “✓”.
